{
  "source": "patent US20210267992A1",
  "about": "“5-ACETAMIDOMETHYL-OXAZOLIDINONE DERIVATIVES FOR USE IN THE TREATMENT OF CANCER” (Varsity Pharmaceuticals Limited, priority 2018, published 2021)",
  "key": {"[1]": {"test_system": "BRCA1 deficient ovarian cancer cells, UWB1.289", "test": "BrdU proliferation assay, single drugs after cisplatin", "format": "cell-based", "conditions": "cisplatin 1 μM for 24 hours followed by the drug alone for 6 days, result in words", "experimental": "(§1) Methods • Cell morphology, viability and proliferation rate was assessed by visual and counting method. • Day 0: Cells were split and around 1000 cells/well were seeded in normal complete media. • Day 1: Cisplatin was added at 1 μM to the test and controls wells. Untreated cells were left as control. • Day 2: medium containing cisplatin was discarded and new fresh media containing bromodeoxyuridine (BrdU) and the drugs at the concentrations shown in table 1, below, was added. • Day 6: medium was discarded, and cells fixed. BrdU assay was performed according to the manufacturer. • Controls comprised cells without BrdU (Blank), untreated cells (UN) and Cisplatin treated cells for 24 hours only (CIS). • All experiments were conducted in triplicate.\n(§2) BrdU Proliferation Assay • After 6 days of incubation with drugs, the media was discarded, and cells were fixed for 30 minutes, at room temperature, with FixDenat Solution. • FixDenat Solution was then removed and substituted with Anti-BrdU-POD working solution for 2 hours at room temperature. • Plates were then washed 3 times with Washing buffer. • Substrate solution was added. • The reaction was stopped by adding H2SO4 and immediately read at 450 nm.\nData was analysed using Excel and Prism software. The average of the absorbances and the standard error were calculated using the technical triplicate for each condition."}, "UWB1.289 cell line": {"test_system": "UWB1.289 cell line", "test": "BrdU proliferation assay, combinations of PARPis and ATR inhibitors after cisplatin", "format": "cell-based", "conditions": "for proliferation in combination with Aurothiomalate (ATM), compared with the gold complex alone: then Aurothiomalate (ATM) plus the labelled drug for 6 days; for proliferation in combination with auranofin, compared with the gold complex alone: then auranofin plus the labelled drug for 6 days", "experimental": "as §1, §2\nThe methods were the same as described in example 1 except that the new fresh media added on day 2 contained bromodeoxyuridine (BrdU) and the drugs at the concentrations shown in table 2, below. All possible combinations of concentrations for compounds A and B were tested."}, "[2]": {"test_system": "MDA-MB-436 (BRCA1 mutation) breast cancer cell xenograft", "test": "MDA-MB-436 (BRCA1 mutation) breast cancer cell xenograft experiment", "format": "in vivo", "conditions": "mice, 100 mg/kg BID orally, MDA-MB-436 xenograft", "experimental": "The MDA-MB-436 tumour cell line was maintained in vitro as monolayer culture in DMEM medium modified supplemented with 10% heat inactivated foetal bovine serum at 37° C. in an atmosphere of 5% CO2 in air. The tumour cells were routinely sub-cultured once a week by trypsin-EDTA treatment, not to exceed 4-5 passages. The cells growing in an exponential growth phase were harvested and counted for tumour inoculation.\nAll mice were inoculated subcutaneously on the right flank with MDA-MB-436 tumour cells (1×10^7) in 0.1 ml of DMEM with Matrigel mixture (1:1 ratio) for tumour development. The treatment started when the mean tumour size reached is approximately 100-150 mm^3. Mice were then be assigned to groups such that the mean tumour volume is the same for each treatment group. The treatments were administered to the tumour-bearing mice orally at 12 hour intervals.\n560 mg linezolid was dissolved in 1.4 ml ethanol and 12.6 ml PEG400. The solution was vortexed and sonicated with high energy ultrasonic probe to get a uniform solution. The resultant solution was used for 1 day.\nThe measurement of tumour size was conducted twice weekly with a calliper and recorded. The tumour volume (mm3) was estimated using the formula: TV=a×b^2/2, where “a” and “b” are long and short diameters of a tumour, respectively."}, "[3]": {"conditions": "UWB1.289, cisplatin 1 μM 24 hours, result in words"}},
  "note": "Entries after “also recorded” stand apart in the source; their conditions may differ.",
  "data": [
    {"smiles": "OC[C@H]1O[C@H]([S-])[C@H](O)[C@@H](O)[C@@H]1O.[Au+]", "note": "[ATG, Aurothioglucose]", "values": [
      {"measurement": "reduction of proliferation of the cancer cells (BrdU absorbance)", "setting": "[1]", "value": "effectively reduce proliferation"}
    ]},
    {"smiles": "O=C(O)CC([S-])C(=O)O.[Au+]", "note": "(stereo not shown) [ATM, Aurothiomalate]", "values": [
      {"measurement": "reduction of proliferation of the cancer cells (BrdU absorbance)", "setting": "[1]", "value": "effectively reduce proliferation"}
    ]},
    {"smiles": "C[C@@H]1COCCN1c1cc(C2([S@](C)(=N)=O)CC2)nc(-c2cc[nH]c3nccc2-3)n1", "note": "[AZD, AZD6738]", "values": [
      {"measurement": "proliferation in combination with Aurothiomalate (ATM), compared with the gold complex alone", "setting": "UWB1.289 cell line; [3]", "value": "particularly marked improvement over the gold complexes when used alone"},
      {"measurement": "proliferation in combination with auranofin, compared with the gold complex alone", "setting": "UWB1.289 cell line; [3]", "value": "particularly marked improvement over the gold complexes when used alone"},
      {"measurement": "proliferation in combination with olaparib, compared with olaparib alone", "setting": "UWB1.289 cell line; UWB1.289, cisplatin 1 μM 24 hours, then olaparib plus the labelled drug for 6 days, result in words", "value": "further decreased proliferation when compared to the degree of proliferation observed for olaparib alone"}
    ]},
    {"smiles": "O=C(c1cc(Cc2n[nH]c(=O)c3ccccc23)ccc1F)N1CCN(C(=O)C2CC2)CC1", "note": "[Olaparib]", "values": [
      {"measurement": "reduction of proliferation of the cancer cells (BrdU absorbance)", "setting": "[1]", "value": "effectively reduce proliferation"}
    ]},
    {"smiles": "CC(=O)OC[C@H]1O[C@@H]([S-])[C@H](OC(C)=O)[C@@H](OC(C)=O)[C@@H]1OC(C)=O.CCP(CC)CC.[Au+]", "note": "[auranofin]", "values": [
      {"measurement": "reduction of proliferation of the cancer cells (BrdU absorbance)", "setting": "[1]", "value": "effectively reduce proliferation"}
    ]},
    {"smiles": "CC(=O)NC[C@H]1CN(c2ccc(N3CCOCC3)c(F)c2)C(=O)O1", "note": "[linezolid]", "values": [
      {"measurement": "reduction of proliferation of the cancer cells (BrdU absorbance)", "setting": "[1]", "value": "reduce proliferation of cancer cells when used alone"},
      {"measurement": "proliferation in combination with Aurothiomalate (ATM), compared with the gold complex alone", "setting": "UWB1.289 cell line; [3]", "value": "particularly marked improvement over the gold complexes when used alone; also recorded: particularly noticeable synergistic effect"},
      {"measurement": "proliferation in combination with auranofin, compared with the gold complex alone", "setting": "UWB1.289 cell line; [3]", "value": "particularly marked improvement over the gold complexes when used alone"},
      {"measurement": "synergistic effect on proliferation when used with a PARPi", "setting": "UWB1.289 cell line; UWB1.289, combination with a PARPi, result in words", "value": "synergistic effect"},
      {"measurement": "percentage proliferation", "setting": "UWB1.289 cell line; UWB1.289, linezolid 100 nM together with Aurothiomalate (ATM) 30 nM, after cisplatin 1 μM 24 hours", "value": 2, "unit": "%"},
      {"measurement": "proliferation reduction compared with AZD6738", "setting": "UWB1.289 cell line; inventors' conclusion, result in words", "value": "equivalent to proliferation reduction achieved by AZD6738"},
      {"measurement": "reduced tumour size compared to the control group", "setting": "[2]", "value": 38, "unit": "%"}
    ]},
    {"smiles": "NC(=O)c1cccc2cn(-c3ccc([C@@H]4CCCNC4)cc3)nc12", "note": "[niraparib]", "values": [
      {"measurement": "reduction of proliferation of the cancer cells (BrdU absorbance)", "setting": "[1]", "value": "effectively reduce proliferation"}
    ]},
    {"smiles": "CNCc1ccc(-c2[nH]c3cc(F)cc4c3c2CCNC4=O)cc1", "note": "[rucaparib]", "values": [
      {"measurement": "reduction of proliferation of the cancer cells (BrdU absorbance)", "setting": "[1]", "value": "effectively reduce proliferation"}
    ]}
  ]
}
